# No end group written: not given here.
# What was measured:
# [1] = tested on: P. aeruginosa 15159; assay: Invasive P. aeruginosa infection model, survival; assay type: in vivo, Female BALB/c mice
# Protocol: Animal experiments were performed according to a protocol approved by the Local Ethics Committee at Lund University. Animals were housed under standard conditions of light and temperature and had free access to standard laboratory chow and water. P. aeruginosa 15159 bacteria were grown to mid-exponential phase (A620˜0.5), washed and diluted in PBS to 2×10^8 cfu/ml, and kept on ice until injection. Female BALB/c mice, 8 weeks old, were anesthetized with isoflurane and injected intraperitoneally with 100 μL of the bacterial solution, followed by injection of 100 μL SFV33 or GVR28 peptide (1 mg/mL) after 15 minutes, or with 100 μL PBS alone (control group).
# [2] = tested on: RAW 264.7 macrophage cells; assay: LPS stimulation of macrophages in vitro (nitrite, Griess reagent); assay type: cell-based, murine; settings: LPS 10 ng/ml pre-incubated with peptide, 24 h
# Protocol: Murine macrophage-like cells (RAW 264.7; ATCC) were seeded in 96-well plates at 3.5×10^5 cells/well in DMEM (without phenol red, PAA Laboratories) supplemented with 10% fetal calf serum and antibiotic-antimycotic (Invitrogen, Carlsbad, CA). After overnight incubation at 37° C., the cells were washed once with DMEM. LPS (10 ng/ml) was pre-incubated with the peptides for 20 min at room temperature and added to the cells. The cells were subsequently incubated for 24 h at 37° C. Griess reagent (Sigma, St. Louis, MO) was added to culture supernatant in 1:1 ratio followed by 15 min incubation in dark. The absorbance was then measured at 550 nm with a spectrophotometer. The cells with and without LPS stimulation were taken as positive and negative controls for LPS-induction. For the determination of NO production with peptides and LPS treatments, the assay was done in triplicate and the average values were considered for each set. Cells were grown at 37° C. and with 5% CO2 in fully humidified air.
# [3] = tested on: S. pyogenes, S. aureus, E. coli and P. aeruginosa; assay: Bactericidal assay (viable count), statements on the whole panel; assay type: cell-based; settings: salt conditions (150 mM NaCl, pH 7.4)
# Protocol: Bacteria were grown to mid-logarithmic phase (OD620≈0.4) in THB medium at 37° C., with 5% CO2. The bacterial solution was subsequently washed and adjusted to 2×10^7 cfu/ml in salt buffer (10 mM Tris-HCl, 150 mM NaCl supplemented with 5 mM glucose; pH 7.4) (both from Sigma-Aldrich). Various concentrations of peptides (0.3, 0.6, 3, 6, 30 and 60 μM) were incubated with bacteria in salt buffer with or without 20% human plasma. Bacteria incubated in only salt buffer with or without plasma were used as negative controls. Samples with LL-37 served as positive controls. The samples were incubated for 2 h at 37° C. with 5% CO2. To quantify the bactericidal activity, serial dilutions of the incubation mixtures were plated on THB agar plates, followed by incubation at 37° C. with 5% CO2 overnight, and the number of cfu were determined. Experiments were performed in triplicate. Hundred percent survival was defined as total survival of bacteria in the same buffer and under the same condition in the absence of peptides.
# [4] = tested on: human monocytic THP-1 cells; assay: Lactate dehydrogenase (LDH) assay; assay type: cell-based; settings: at 50 μM
# Protocol: The cytotoxicity experiments were performed as described previously (41). Briefly, human monocytic THP-1 cells (American Type Culture Collection (ATCC), Manassas, VA) were cultured into 96-well plates using Dulbecco's Modified Eagle's medium (DMEM) (PAA Laboratories) supplemented with 10% fetal calf serum. The medium was removed and the cells were subsequently washed with DMEM. Peptides (1, 5, 10, 20, 50 μM) diluted in DMEM were added in triplicates. The LDH based TOX-7 kit (Sigma-Aldrich) was used according to the manufacturer instructions. The amount of LDH release from dead cells was measured at 450 nm. As a positive control 2% Triton X-100 was used.
# [5] = Membrane permeabilization assay (carboxyfluorescein efflux from liposomes); settings: 10 mM Tris pH 7.4, 37° C., 45 min
# Protocol: Dry lipid films of E. coli polar lipid extract were formed in round-bottom flask walls by dissolving lipids in chloroform, followed by evaporation under N2-flow and subsequently placed in vacuum overnight. Lipid films were re-suspended either by 30 min stirring (E. coli), at 55° C. in an aqueous solution of 100 mM 5(6)-carboxyfluorescein in 10 mM Tris (set to pH 7.4 at 37° C.). Suspensions were then vortexed followed by repeated extrusion through a 100 nm polycarbonate membrane mounted in a LipoFast mini-extruder (Avanti Polar Lipids) in order to reduce multilamellar structures and polydispersity. Un-trapped carboxyfluorescein was removed by gel filtration on Sephadex PD-10 columns (GE Healthcare, Little Chalfont, UK). Membrane permeability was measured by monitoring carboxyfluorescein efflux from the liposomes to the external low concentration environment, resulting in loss of self-quenching and an increased fluorescence signal with excitation and emission wavelengths of 492 and 517 nm, respectively. Fluorescence was measured with a Varioskan Flash Multimode Reader (Thermo Fisher Scientific, Waltham, MA) in black Nunc Delta Surface 96-well plate (Thermo Fisher Scientific, Roskilde, DK). […] The effects of each peptide concentration on the liposome systems were monitored for 45 min, at which point the initial leakage had largely subsided. […]
# [6] = tested on: P. aeruginosa; assay type: cell-based, Pseudomonas aeruginosa PAO1; settings: positive control, 3 μM LL-37
# Protocol: (§1) Viable count assay Bacteria were grown to mid-logarithmic phase (OD620≈ 0.4) in THB-medium at 37° C. with 5% CO2. The bacterial solution was subsequently washed and adjusted to 2×10^9 cfu/ml in 10 mM Tris, pH 7.4, containing 5 mM glucose. S. pyogenes, S. aureus, E. coli or P. aeruginosa were then incubated with 2 μM of purified collagen type VI at 37° C. for 2 h. In some experiments S. pyogenes was incubated with recombinant collagen type VI fragments at various concentrations (0.125, 0.25, 0.5, 1.0 and 2.0 μM) for 2 h at 37° C. Bacteria incubated with Tris-HCl pH 7.4 buffer or 3 μM LL-37 (Innovagen, Lund, Sweden) were used as negative and positive controls respectively. To quantify the bactericidal activity, serial dilutions of the incubation mixtures were plated on blood agar plates, followed by incubation at 37° C. overnight, and the number of colony forming units (cfu) were determined. Hundred percent survival was defined as total survival of bacteria in the same buffer and under the same condition in the absence of collagen type VI or recombinant proteins.
# [7] = tested on: S. pyogenes; assay type: cell-based, Streptococcus pyogenes strain AP1; settings: positive control, 3 μM LL-37
# Protocol: as §1
# [8] = tested on: S. aureus; assay type: cell-based, Staphylococcus aureus strain 111; settings: positive control, 3 μM LL-37
# Protocol: as §1
# [9] = tested on: E. coli; assay type: cell-based, Escherichia coli strain 1351; settings: positive control, 3 μM LL-37
# Protocol: as §1
compound,measurement,setting,value
GVRPDGFAHIRDFVSRIVRRLNIGPSKV (GVR28 peptide) [peptide derived from VWA domain of collagen type VI α3-chain],survival compared with PBS group,[1]; experiment terminated after 29 hours,prolonged survival
same,time at which 50% mortalities were observed,"[1]; mice infected i.p., single dose 100 μL peptide (1 mg/mL) 15 minutes after infection",24 h
same,LPS-induction of nitrite,[2],significantly suppressed the LPS-induction of nitrite
same,antibacterial activity (viable count),[3],somewhat reduced effects
SFVARNTFKRVRNGFLMRKVAVFFSNTPTRASP [SFV33],toxicity towards monocytes (LDH release),[4],exhibited toxicity
FYLKTYRSQAPVLDAIRRLRLRGGS (FYL25 peptide) [peptide derived from VWA domain of collagen type VI α3-chain],membrane leakage (release of carboxyfluorescein),[5],highest membrane leakage
CC[C@H](C)[C@H](NC(=O)[C@H](CCCCN)NC(=O)[C@H](CCC(=O)O)NC(=O)[C@H](CCCCN)NC(=O)[C@H](CO)NC(=O)[C@H](CCCCN)NC(=O)[C@H](CCCNC(=N)N)NC(=O)[C@H](Cc1ccccc1)NC(=O)[C@H](Cc1ccccc1)NC(=O)[C@H](CC(=O)O)NC(=O)CNC(=O)[C@H](CC(C)C)NC(=O)[C@@H](N)CC(C)C)C(=O)NCC(=O)N[C@@H](CCCCN)C(=O)N[C@@H](CCC(=O)O)C(=O)N[C@@H](Cc1ccccc1)C(=O)N[C@@H](CCCCN)C(=O)N[C@@H](CCCNC(=N)N)C(=O)N[C@H](C(=O)N[C@H](C(=O)N[C@@H](CCC(N)=O)C(=O)N[C@@H](CCCNC(=N)N)C(=O)N[C@H](C(=O)N[C@@H](CCCCN)C(=O)N[C@@H](CC(=O)O)C(=O)N[C@@H](Cc1ccccc1)C(=O)N[C@@H](CC(C)C)C(=O)N[C@@H](CCCNC(=N)N)C(=O)N[C@@H](CC(N)=O)C(=O)N[C@@H](CC(C)C)C(=O)N[C@H](C(=O)N1CCC[C@H]1C(=O)N[C@@H](CCCNC(=N)N)C(=O)N[C@H](C(=O)N[C@@H](CCC(=O)O)C(=O)N[C@@H](CO)C(=O)O)[C@@H](C)O)C(C)C)[C@@H](C)CC)C(C)C)[C@@H](C)CC [LL-37],killing,[6],~100%
same,killing,[7],~100%
same,killing,[8],~100%
same,killing,[9],~100%
